# Tests used:
# [1] = target: class A β-lactamase TEM-1 (Escherichia coli, UniProt P62593); experiment: IC50 determination, β-lactamase inhibition (nitrocefin, spectrophotometric); format: biochemical, E. coli; settings: enzyme 4.3 nM; 10 minutes preincubation at 25° C.; nitrocefin 50 μg/ml; pH 7.0
# E. Cloacae GC1477 (Ampc) = experiment: Antimicrobial susceptibility testing, microbroth dilution, piperacillin + inhibitor; format: cell-based; settings: piperacillin combined with constant 4 ug/ml of inhibitor; 35° C. for 18 hours
# Procedure: (§1) Antimicrobial susceptibility testing. The in vitro activities of the antibiotics were determined by the microbroth dilution method as recommended by the National Committee for Clinical Laboratory Standards (NCCLS). (NCCLS. 2000. Methods for Dilution Antimicrobial Susceptibility Tests for Bacteria That Grow Aerobically; Approved Standards: M7-A5, vol. 19. National Committe for Clinical Laboratory Standards, Villanova, Pa.). Mueller-Hinton II broth (MHBII) (BBL Cockeysville, Md.), was used for the testing procedure. Microtiter plates containing 50 μl per well of two-fold serial dilutions of piperacillin combined with a constant amount (4 ug/ml) of a B-lactamase inhibitor were inoculated with 50 μl of inoculum to yield the appropriate density (10^5 CFU/ml) in 100·I final volume. The plates were incubated for 18-22 hours at 35° C. in ambient air.
# [2] = system: P. aeruginos GC1764 (Ampc); experiment: as above; format: cell-based; settings: piperacillin combined with constant 4 ug/ml of inhibitor; 35° C. for 18 hours
# Procedure: as §1
# [3] = system: S. Marcescens GC1781 Sme-1 + Ampc; experiment: as above; format: cell-based; settings: piperacillin combined with constant 4 ug/ml of inhibitor; 35° C. for 18 hours
# Procedure: as §1
# [4] = target: class A β-lactamase Imi-1 (Enterobacter cloacae, UniProt Q46991); experiment: IC50 determination, β-lactamase inhibition (nitrocefin, spectrophotometric); format: biochemical; settings: enzyme 7.1 nM; 10 minutes preincubation at 25° C.; nitrocefin 50 μg/ml; pH 7.0; read-out: IC50 (nM) Class A Imi
# Chain of class A β-lactamase Imi-1 (Q46991 28-292): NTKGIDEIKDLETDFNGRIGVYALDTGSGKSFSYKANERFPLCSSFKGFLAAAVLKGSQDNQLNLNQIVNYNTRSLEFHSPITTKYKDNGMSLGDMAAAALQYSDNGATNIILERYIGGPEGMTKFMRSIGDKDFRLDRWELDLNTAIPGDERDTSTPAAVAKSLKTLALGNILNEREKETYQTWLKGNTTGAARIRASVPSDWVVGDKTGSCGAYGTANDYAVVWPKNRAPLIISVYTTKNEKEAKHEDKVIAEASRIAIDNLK
# class B enzyme CcrA = class B enzyme CcrA (Bacteroides fragilis, UniProt P25910); experiment: as above; format: biochemical; settings: enzyme 1.2 nM; 10 minutes preincubation at 25° C.; nitrocefin 50 μg/ml; pH 7.0; read-out: IC50 (nM) Class B Ccr
# Chain of class B enzyme CcrA (P25910 19-249): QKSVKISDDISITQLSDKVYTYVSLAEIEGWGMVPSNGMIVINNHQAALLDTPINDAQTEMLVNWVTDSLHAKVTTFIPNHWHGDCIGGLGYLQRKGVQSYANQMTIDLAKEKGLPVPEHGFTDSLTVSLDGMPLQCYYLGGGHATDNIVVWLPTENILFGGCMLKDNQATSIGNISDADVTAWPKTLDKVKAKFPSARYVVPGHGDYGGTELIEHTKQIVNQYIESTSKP
# class C enzyme AmpC = class C enzyme AmpC (Enterobacter cloacae, UniProt P05364); experiment: biochemical; set-up: species or system Enterobacter cloaca; settings: enzyme 2.1 nM; 10 minutes preincubation at 25° C.; nitrocefin 50 μg/ml; pH 7.0; read-out: IC50 (nM) Class C AmpC
# Chain of class C enzyme AmpC (P05364 21-381): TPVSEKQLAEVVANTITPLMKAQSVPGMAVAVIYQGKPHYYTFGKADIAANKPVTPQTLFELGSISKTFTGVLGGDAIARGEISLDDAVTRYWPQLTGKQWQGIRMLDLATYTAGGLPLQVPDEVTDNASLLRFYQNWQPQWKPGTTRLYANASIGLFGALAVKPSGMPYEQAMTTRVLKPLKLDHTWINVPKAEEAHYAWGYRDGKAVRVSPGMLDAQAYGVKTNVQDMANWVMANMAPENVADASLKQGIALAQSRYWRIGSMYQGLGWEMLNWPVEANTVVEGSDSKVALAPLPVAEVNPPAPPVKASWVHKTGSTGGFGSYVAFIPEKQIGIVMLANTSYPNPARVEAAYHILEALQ
# E. Coli GC2847 (TEM-1) = experiment: Antimicrobial susceptibility testing, microbroth dilution, piperacillin + inhibitor; format: cell-based; settings: piperacillin combined with constant 4 ug/ml of inhibitor; 35° C. for 18 hours
# Procedure: as §1, with “air. […] The MIC data obtained by the above said procedure are enlisted in Table 2.” for “air.”
# E. Coli GC2920 (IRT-2) = experiment: as above; format: cell-based; settings: piperacillin combined with constant 4 ug/ml of inhibitor; 35° C. for 18 hours
# Procedure: as §1, with “air. […] The MIC data obtained by the above said procedure are enlisted in Table 2.” for “air.”
# E. Coli GC22033 = experiment: as above; format: cell-based; settings: piperacillin combined with constant 4 ug/ml of inhibitor; 35° C. for 18 hours
# Procedure: as §1, with “air. […] The MIC data obtained by the above said procedure are enlisted in Table 2.” for “air.”
# E. Coli GC2894 (Ampc) = experiment: as above; format: cell-based; settings: piperacillin combined with constant 4 ug/ml of inhibitor; 35° C. for 18 hours
# Procedure: as §1, with “air. […] The MIC data obtained by the above said procedure are enlisted in Table 2.” for “air.”
# E. Coli GC2844 = experiment: as above; format: cell-based; settings: piperacillin combined with constant 4 ug/ml of inhibitor; 35° C. for 18 hours
# Procedure: as §1, with “air. […] The MIC data obtained by the above said procedure are enlisted in Table 2.” for “air.”
# S. aureus GC2216 = experiment: as above; format: cell-based; settings: piperacillin combined with constant 4 ug/ml of inhibitor; 35° C. for 18 hours
# Procedure: as §1, with “air. […] The MIC data obtained by the above said procedure are enlisted in Table 2.” for “air.”
# [5] = system: Clinical isolates that have been adapted to cause infection in mice; experiment: In vivo antibacterial protection, 7 day survival of infected mice; set-up: species or system mice strain CD-1; settings: Ratio of Piperacillin vs. Inhibitor not given
# Chain of class A β-lactamase TEM-1 (P62593 24-286 limits assumed): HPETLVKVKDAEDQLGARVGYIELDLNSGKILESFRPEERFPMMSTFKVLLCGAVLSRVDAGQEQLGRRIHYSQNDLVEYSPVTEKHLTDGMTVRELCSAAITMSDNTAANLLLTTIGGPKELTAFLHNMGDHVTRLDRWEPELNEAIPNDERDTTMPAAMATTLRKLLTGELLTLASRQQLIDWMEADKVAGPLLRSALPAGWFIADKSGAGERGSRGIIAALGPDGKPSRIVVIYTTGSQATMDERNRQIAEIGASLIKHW
smiles,measurement,setting,value
"O=C([O-])C1=CS[C@@H]2/C(=C\c3cc4n(n3)CCCO4)C(=O)N12.[Na+] [Example 36, (5R)(6Z)-6-(6,7-5H-Dihydropyrazolo[5,1-b]oxazin-2-ylmethylene)-7-oxo-4-thia-1-azabicyclo[3.2.0]hept-2-ene-2-carboxylic acid, sodium salt]",IC50,[1],6.3 nM
same,Minimal Inhibitory Concentration E. Cloacae GC1477 (Ampc),E. Cloacae GC1477 (Ampc),16 µg/mL
same,Minimal Inhibitory Concentration P. aeruginos GC1764 (Ampc),[2],1 µg/mL
same,Minimal Inhibitory Concentration S. Marcescens GC1781 Sme-1 + Ampc,[3],1 µg/mL
same,IC50,[4],413 nM
same,IC50,class B enzyme CcrA,140 nM
same,IC50,class C enzyme AmpC,4.5 nM
same,Minimal Inhibitory Concentration E. Coli GC2847 (TEM-1),E. Coli GC2847 (TEM-1),4 µg/mL
same,Minimal Inhibitory Concentration E. Coli GC2920 (IRT-2),E. Coli GC2920 (IRT-2),2 µg/mL
same,Minimal Inhibitory Concentration E. Coli GC22033,E. Coli GC22033,4 µg/mL
same,Minimal Inhibitory Concentration E. Coli GC2894 (Ampc),E. Coli GC2894 (Ampc),2 µg/mL
same,Minimal Inhibitory Concentration E. Coli GC2844,E. Coli GC2844,2 µg/mL
same,Minimal Inhibitory Concentration S. aureus GC2216,S. aureus GC2216,0.06 µg/mL
same,ED50,[5],90 mg/kg

# From patent publication US7812014B2, “Bicyclic 6-alkylidene-penems as β-lactamase inhibitors” (priority 2002, dated 2010)
